Experiments:
[1] = test system: SVEC4-10 endothelial cells; assay: Tube formation assay, SVEC4-10; assay type: cell-based, murine; details: SVEC4-10 on Matrigel, 3 hours
Method: Plates (48 wells) were coated with 150 μl of Matrigel and incubated at 37° C. for 1 hour to promote gelling. Svec4-10 or HUVEC cells (40,000 cells) in 0.5 ml of serum-free DMEM with varying concentration of AS101 or SAS were added to each well. For positive control, ECGS was added at a concentration of 50 μg/ml. All samples were performed in sextuplicate. After 3 hours incubation, the plates were fixed with methanol and stained with crystal violet. Randomly chosen fields were photographed and density of tube formation was analyzed by imageJ.

aortic arches = assay: Chick aortic arch assay; assay type: cell-based; details: for vessel length and number, sprouting induced by ECGS / length of tubes exiting from arches / number of tubes exiting from arches: 0.5-5 μg/ml; for vessel length and number, sprouting induced by ECGS: 100 μg/ml ECGS; for length of tubes exiting from arches / number of tubes exiting from arches: without ECGS; for toxicity in aortic arch assay (re-sprouting after washing): data not shown
Method: Aortic arches were removed from fertilized chicken eggs at day 13 of embryonic development. The eggs were cracked into a sterile 100 mm culture dish. The embryo was removed from its surroundings by cutting away the associated membranes and yolk sac. The chicken embryo was placed ventral side up to surgically expose the heart and aortic arches. The heart and aortic arch were removed and placed into a sterile culture dish containing PBS to which 1% penicillin-streptomycin was added. Arches, from which the surrounding adventitia had been removed, were cut into 0.8 mm sections. Each arch was placed onto drop of Matrigel that was deposited on the bottom of a 48-well culture plate just prior to adding the ring. An additional drop of ice-cold Matrigel was spread on each aortic arch. Matrigel was allowed to solidify before adding 500 μl of human endothelial-SFM basal growth medium. […] Quantitative evaluation of tubule formation was performed by a blinded observer on a scale of 1-3 (least to maximum sprouting).

SVEC4-10 cells = assay: Cell attachment assay, SVEC4-10; assay type: cell-based, murine
Method: (§1) The cell attachment assays were performed in sextuplicate in 96-well plates. The 1 μg of C16 or AG73 peptide in 60 μl double-distilled water was added to each well, and this volume was allowed to air dry overnight in a biosafety hood at room temperature (or fibronectin 20 ng/80 μl for 1 hour at 37° C.). Thereafter, nonspecific binding sites of the tissue culture plastic were blocked by adding 200 μl of 1% bovine serum albumin (BSA) in PBS for 1 hour at 37° C. LAN-1, B16F10 and SVEC4-10 cells were harvested by agitation, washed three times in serum-free DMEM and resuspended in 1% BSA-DMEM. After 20 minutes incubation in 1% BSA in a tube, cells were washed and resuspended in 0.1% BSA. The cells were counted using a hemocytometer and brought to a final cell count of 1×10^6/ml in the 0.1% BSA medium. Cells were divided into tubes and each tube was treated with one of the following in DMEM: ECGS (endothelial cell growth supplement) (50 μg/ml), AS101 (1-5 μg/ml), SAS (1-5 μg/ml), ECGS (50 μg/ml)+SAS (1-5 μg/ml), ECGS (50 μg/ml)+AS101 (1-5 μg/ml), 10% serum, 10% serum+AS101 (1-5 μg/ml) or 10% serum+SAS (1-5 μg/ml).
(§2) Next, 150 μl of the treated cell suspension was added to each well (20,000 cells/well), which had been coated with peptides, and incubated for 50 minutes at 37° C. After 50 minutes, the unattached cells were removed by aspiration and the remaining attached cells were fixed and stained by crystal violet. 100 μl aliquot of 10% SDS was thereafter added to each well for cell lysis and dye release and absorption was read with a TECAN spectrophotometer at 570 nm.
(§3) Attached cells were washed with PBS without Ca^+2/Mg^+2. 100 μl of 0.2% crystal violet in 20% methanol was thereafter added and the cells were incubated for 10 minutes at room temperature. At the end of incubation time, cells were washed twice with double-distilled water and 100 μl of 10% SDS was added. Dye bound to the cell is released by SDS and the absorption by the dye is measured by colorimetry at 570 nm. The amount of stained cells is then considered to be proportional to the measured absorption by the dye

LAN-1 cells = assay: Cell attachment assay, LAN-1; assay type: cell-based, human; details: for cell attachment to fibronectin: LAN-1; for cell attachment to C16 and AG73 peptides: LAN-1, data not shown, compared with SVEC4-10
Method: as §1, §2, §3

BV-2 cells = assay: Cell attachment assay, BV-2; assay type: cell-based, murine
B16F10 cells = assay: Cell attachment assay, B16F10; assay type: cell-based, murine; details: B16F10, data not shown, compared with SVEC4-10
Method: as §1, with “Cells were divided into tubes and each tube was treated with one of the following in DMEM: ECGS (endothelial cell growth supplement) (50 μg/ml), AS101 (1-5 μg/ml), SAS (1-5 μg/ml), ECGS (50 μg/ml)+SAS (1-5 μg/ml), ECGS (50 μg/ml)+AS101 (1-5 μg/ml), 10% serum, 10% serum+AS101 (1-5 μg/ml) or 10% serum+SAS (1-5 μg/ml).” left out
Next, 150 μl of the treated cell suspension was added to each well (20,000 cells/well), which had been coated with peptides, and incubated for 50 minutes at 37° C. […] 100 μl aliquot of 10% SDS was thereafter added to each well for cell lysis and dye release and absorption was read with a TECAN spectrophotometer at 570 nm.
Attached cells were washed with PBS without Ca^+2/Mg^+2. […] Dye bound to the cell is released by SDS and the absorption by the dye is measured by colorimetry at 570 nm. The amount of stained cells is then considered to be proportional to the measured absorption by the dye

αVβ3 integrin = biological target: T1, αVβ3 integrin (Homo sapiens, UniProt P05106+P06756); assay: ELISA-integrin; assay type: binding; details: 0.5-10 μg/ml
T1 construct: purchased Chemicon
T1 sequence (P06756 31-889 limits assumed): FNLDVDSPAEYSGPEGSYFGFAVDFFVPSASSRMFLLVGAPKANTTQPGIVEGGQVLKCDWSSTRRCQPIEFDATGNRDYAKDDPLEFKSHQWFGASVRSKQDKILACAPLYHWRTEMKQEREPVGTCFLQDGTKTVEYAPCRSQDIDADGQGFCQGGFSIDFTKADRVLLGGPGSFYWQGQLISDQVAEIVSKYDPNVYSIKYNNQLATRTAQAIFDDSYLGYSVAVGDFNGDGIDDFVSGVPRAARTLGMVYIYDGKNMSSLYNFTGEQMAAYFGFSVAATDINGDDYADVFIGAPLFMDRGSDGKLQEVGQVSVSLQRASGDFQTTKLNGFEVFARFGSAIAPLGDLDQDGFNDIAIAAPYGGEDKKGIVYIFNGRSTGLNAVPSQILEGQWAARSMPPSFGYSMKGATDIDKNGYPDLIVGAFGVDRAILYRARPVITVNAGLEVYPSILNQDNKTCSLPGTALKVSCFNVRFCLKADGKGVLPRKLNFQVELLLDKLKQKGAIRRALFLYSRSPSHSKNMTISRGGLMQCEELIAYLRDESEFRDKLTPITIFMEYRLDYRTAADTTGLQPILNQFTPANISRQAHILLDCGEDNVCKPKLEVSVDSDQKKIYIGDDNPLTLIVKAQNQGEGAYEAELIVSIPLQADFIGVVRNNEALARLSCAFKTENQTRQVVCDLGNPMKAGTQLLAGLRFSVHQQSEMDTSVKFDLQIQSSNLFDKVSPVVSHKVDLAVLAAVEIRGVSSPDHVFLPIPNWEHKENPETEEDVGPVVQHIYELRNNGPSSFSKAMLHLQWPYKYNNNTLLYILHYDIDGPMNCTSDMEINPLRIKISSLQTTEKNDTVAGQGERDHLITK
T1 sequence (P06756 891-1048 limits assumed): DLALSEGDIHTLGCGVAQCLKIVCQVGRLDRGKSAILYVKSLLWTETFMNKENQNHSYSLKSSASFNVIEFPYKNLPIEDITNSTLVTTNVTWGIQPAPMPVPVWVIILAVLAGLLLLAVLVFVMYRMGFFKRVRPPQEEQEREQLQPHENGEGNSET
T1 sequence (P05106 27-788): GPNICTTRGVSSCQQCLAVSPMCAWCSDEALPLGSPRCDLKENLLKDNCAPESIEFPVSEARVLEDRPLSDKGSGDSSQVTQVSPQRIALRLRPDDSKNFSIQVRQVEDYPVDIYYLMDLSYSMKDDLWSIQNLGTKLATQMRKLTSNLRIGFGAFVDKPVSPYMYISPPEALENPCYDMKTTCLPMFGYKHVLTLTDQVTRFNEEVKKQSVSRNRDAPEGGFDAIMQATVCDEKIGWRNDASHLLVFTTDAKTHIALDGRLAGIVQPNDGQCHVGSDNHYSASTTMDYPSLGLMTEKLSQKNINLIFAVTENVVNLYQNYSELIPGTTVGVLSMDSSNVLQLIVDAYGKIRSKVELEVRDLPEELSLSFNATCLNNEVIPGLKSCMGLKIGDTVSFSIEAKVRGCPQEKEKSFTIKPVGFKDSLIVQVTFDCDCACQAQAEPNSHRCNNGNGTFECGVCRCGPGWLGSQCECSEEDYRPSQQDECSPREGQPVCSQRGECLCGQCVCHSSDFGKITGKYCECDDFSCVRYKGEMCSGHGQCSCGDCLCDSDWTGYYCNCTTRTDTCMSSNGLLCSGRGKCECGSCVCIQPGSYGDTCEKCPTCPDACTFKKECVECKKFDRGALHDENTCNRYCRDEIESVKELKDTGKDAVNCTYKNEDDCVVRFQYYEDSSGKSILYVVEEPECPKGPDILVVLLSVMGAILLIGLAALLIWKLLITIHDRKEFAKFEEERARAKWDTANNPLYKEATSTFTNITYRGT
Method: Plates coated with C16 or fibronectin were blocked with 10% BSA for 1 hour and washed with PBS. 20 ng/well of integrin with or without AS101/SAS was applied on fibronectin or 2 ng C16 coated well and incubated for 1.5 hours at 37° C. The wells were thereafter washed with PBS-T and mouse anti-integrin was added thereto for 1 hour at 37° C. Cells were then washed again and anti-mouse-horseradish peroxidase was added for another 1 hour at 37° C. Finally, cells were washed, TBM-substrate was added for color development, and absorption was read at 595 nm. Data presented as ±SE, bar *=p<0.005, evaluated by T-test.

FAK = assay: Western blot analysis of FAK phosphorylation; assay type: cell-based, murine
Method: Cell lysates (20 μg) were diluted with an equal volume of 2×SDS (sodium dodecyl sulfate) sample buffer and separated according to size by SDS-PAGE (SDS-polyacrylamide gel electrophoresis). Proteins were transferred to a polyvinylidene difluoride membrane via electroelution by a transfer system (Bio-Rad), blocked for 1 hour by blocking buffer (5% skim milk in PBS with 0.05% Tween 20) and incubated for 2 hours in room temperature or for overnight in 4° C. with primary antibodies diluted in blocking buffer. Membranes were washed several times in PBS with 0.05 Tween (PBS-T) and incubated for 1 hour with horseradish peroxidase-conjugated anti-mouse or anti-rabbit antibodies (diluted 1:10,000). Proteins were detected by ECL Western Blotting Detection Reagents according to the instructions of the manufacturer (PIERCE).

integrin β subunits = assay: Multiple anti-integrin antibody binding assay, β subunits; assay type: cell-based; details: SVEC cells
Method: The specificity of tellurium-containing compounds to integrins was tested by examining the effect of AS101 and SAS on the attachment of SVEC cells to specific anti-integrin antibodies. Commercially available kits (R&D Biosystems) with anti-integrin coated wells were used, and attachment was determined according to the manufacturer's instructions.

[2] = B16F10, 5 to 10 minutes incubation
[3] = LAN-1, 5 to 10 minutes incubation
[4] = SVEC4-10, 5 to 10 minutes incubation

SMILES	number of tubes formed [1]	vessel length and number, sprouting induced by ECGS (aortic arches)	length of tubes exiting from arches (aortic arches)	number of tubes exiting from arches (aortic arches)	toxicity in aortic arch assay (re-sprouting after washing) (aortic arches)	cell attachment to AG73 peptide (SVEC4-10 cells)	cell attachment to C16 peptide (SVEC4-10 cells)	cell attachment to fibronectin (SVEC4-10 cells)	cell attachment to fibronectin (LAN-1 cells)	cell attachment to C16 and AG73 peptides (LAN-1 cells)	cell attachment to fibronectin (BV-2 cells)	cell attachment to C16 and AG73 peptides (B16F10 cells)	C16 peptide binding to αVβ3 integrin (αVβ3 integrin)	fibronectin binding to αVβ3 integrin (αVβ3 integrin)	ECGS-induced FAK phosphorylation at Y397 (FAK; [2])	ECGS-induced FAK phosphorylation at Y397 (FAK; [3])	ECGS-induced FAK phosphorylation at Y397 (FAK; [4])	cell attachment to antibodies against integrin β subunits (integrin β subunits)
Cl[TeH]1(Cl)(Cl)OCCO1 [AS101, ammonium trichloro(dioxyethylene-O,O′)tellurate]	reduced the number of tubes formed	inhibit the vessel length and number	reduced their length	did not inhibit the number of tubes exiting from arches	non-toxic	slightly decrease	slightly decrease	inhibited cell attachment to fibronectin	inhibited cell attachment to fibronectin	similar	inhibited cell attachment to fibronectin	similar	block	block	inhibition of ECGS-induced FAK phosphorylation at Y397	inhibition of ECGS-induced FAK phosphorylation at Y397	inhibition of ECGS-induced FAK phosphorylation at Y397	considerable inhibition
O=C1O[Te]23OC(=O)C(O2)C2O[Te]4(OC(=O)C(O4)C1O3)OC2=O [SAS, [TeO4(COCH)2]2]	reduced the number of tubes formed	inhibit the vessel length and number	reduced their length	did not inhibit the number of tubes exiting from arches	non-toxic	slightly decrease	slightly decrease	inhibited cell attachment to fibronectin	inhibited cell attachment to fibronectin	similar	inhibited cell attachment to fibronectin	similar	block	block	inhibition of ECGS-induced FAK phosphorylation at Y397	inhibition of ECGS-induced FAK phosphorylation at Y397	inhibition of ECGS-induced FAK phosphorylation at Y397	considerable inhibition

Source: patent US20100297256A1, “METHODS AND COMPOSITIONS FOR INHIBITING INTEGRINS USING TELLURIUM-CONTAINING COMPOUNDS” (priority 2007, published 2010)
